Like-named read-outs stand apart in the source and are kept apart here.
System: INS-1 cells
Test: INS-1 cell survival after Tm treatment (CellTiter-Glo, intracellular ATP)
Format: cell-based, rat
Conditions: for Maximum activity: % rescue from Tm (0.1 μg/mL)-induced reduction of cell viability, Tm alone 0%, DMSO 100%
Method: A structure-activity-relationship (SAR) study was thus conducted to improve the weak potency of lead compound 5a. Newly synthesized or commercially available compounds were tested for their β-cell-protective activity against ER stress in rat INS-1 β-cells. […] Maximum activity value in the tables is reported as % rescue from Tm (0.1 μg/mL)-induced reduction of cell viability. The values for Tm treatment alone and control (DMSO, without Tm) treatment are designated as 0% and 100%, respectively in all tables. EC50 values (the concentrations that reach half-maximal activity) for INS-1 cell viability were calculated with GraphPad Prism from the data of ten 2-fold serial titration points in all tables. All experiments were performed in triplicate in all tables.
INS-1 cells or βTC6 cells were seeded at 3×10^3 cells/well in a 384-well plate and treated with compounds at the indicated concentrations. After 3 d treatment, the medium was aspirated and 20 μL/well of CellTiter-Glo reagent (Promega, WI, USA) was added for the detection of intracellular ATP levels. Cell viability was measured with an EnVision multilabel plate reader (PerkinElmer, MA, USA).

[1] = INS-1 cell viability, Tm 0.1 μg/mL, 72 h, ten 2-fold serial titration points, Table 3, read-out: EC50
[2] = INS-1 cell viability, Tm 0.1 μg/mL, 72 h, ten 2-fold serial titration points, Table 2, read-out: EC50
[3] = INS-1 cell viability, Tm 0.1 μg/mL, 72 h, ten 2-fold serial titration points, Table 1, read-out: EC50
[4] = INS-1 cell viability in presence of Tm, read-out: EC50

| SMILES | Maximum activity (72 h, Table 2) [%] | EC50 [2] [nM] | Maximum activity (72 h, Table 1) [%] | EC50 [3] [nM] | further results |
| --- | --- | --- | --- | --- | --- |
| COc1ccc(CNc2nc(N3CCCC3CO)nc3ccccc23)cc1 (stereo not drawn) [Compound 8c] |  |  |  |  | Maximum activity (72 h, Table 3): 57.2%; EC50 [1]: 4050 ± 130 nM |
| OCC1CCCCN1c1nc(NCCc2ccc(Cl)cc2)c2ccccc2n1 (stereo not drawn) [Compound 6c] | 57.6 | 170 ± 50 |  |  |  |
| OCC1CCCN1c1nc(NCCc2cccc(F)c2)c2ccccc2n1 (stereo not drawn) [Compound 5f] |  |  | 51.3 | 1150 ± 190 |  |
| OCC1CCCCN1c1nc(NCCc2ccc(Br)cc2)c2ccccc2n1 (stereo not drawn) [Compound 6d] | 52.8 | 340 ± 90 |  |  |  |
| OCC1CCCCN1c1nc(NCCc2ccc(F)cc2)c2ccccc2n1 (stereo not drawn) [Compound 6b] | 47.5 | 310 ± 260 |  |  | EC50 improvement over 2-(hydroxymethyl)pyrrolidin-1-yl counterpart (6-series versus 5-series counterpart): ~7 fold |
| OCC1CCCCN1c1nc(NCCc2ccccc2F)c2ccccc2n1 (stereo not drawn) [Compound 6k] | 60.3 | 1460 ± 460 |  |  |  |
| OCC1CCCN1c1nc(NCCc2ccccc2F)c2ccccc2n1 (stereo not drawn) [Compound 5j] |  |  | 52.5 | 1700 ± 230 |  |
| COc1cccc(CCNc2nc(N3CCCC3CO)nc3ccccc23)c1 (stereo not drawn) [Compound 5i] |  |  | 54.9 | 1510 ± 130 |  |
| COc1ccccc1CCNc1nc(N2CCCCC2CO)nc2ccccc12 (stereo not drawn) [Compound 6n] | 46.9 | 1600 ± 150 |  |  |  |
| OCC1CCCCN1c1nc(NCc2ccccc2)c2ccccc2n1 (stereo not drawn) [Compound 9a] |  |  |  |  | Maximum activity (72 h, Table 3): 56.4%; EC50 [1]: 230 ± 70 nM |
| OCC1CCCN1c1nc(NCCc2ccc(Cl)cc2)c2ccccc2n1 (stereo not drawn) [Compound 5c] |  |  | 57.3 | 510 ± 90 | EC50 [4]: ~500 nM |
| COc1ccc(CCNc2nc(N3CCCCC3CO)nc3ccccc23)cc1 (stereo not drawn) [Compound 6f] | 58.6 | 310 ± 120 |  |  |  |
| OCC1CCCCN1c1nc(NCCc2cccc(Cl)c2)c2ccccc2n1 (stereo not drawn) [Compound 6h] | 46.2 | 790 ± 300 |  |  |  |
| COc1ccccc1CCNc1nc(N2CCCC2CO)nc2ccccc12 (stereo not drawn) [Compound 5m] |  |  | 56.6 | 3560 ± 150 |  |
| OCC1CCCN1c1nc(NCCc2ccccc2)c2ccccc2n1 (stereo not drawn) [Compound 5a, (1-(4-(phenethylamino)quinazolin-2-yl)pyrrolidin-2-yl)methanol] |  |  | 54.4 |  | EC50 [4]: ~500 nM; EC50 (Rattus norvegicus, INS1, 72 h, INS-1 cell viability, Tm 0.1 μg/mL, 72 h, ten 2-fold serial titration points, Table 1, read-out: EC50): 480 ± 190 nM; EC50 (Rattus norvegicus, INS1, running text, INS-1 cell viability in presence of Tm, read-out: EC50): 480 ± 190 nM |
| OCC1CCCCN1c1nc(NCc2ccc(Cl)cc2)c2ccccc2n1 (stereo not drawn) [Compound 9b] |  |  |  |  | Maximum activity (72 h, Table 3): 54.7%; EC50 [1]: 210 ± 80 nM |
| OCC1CCCN1c1nc(NCCc2ccc(Br)cc2)c2ccccc2n1 (stereo not drawn) [Compound 5d] |  |  | 44.1 | 650 ± 160 | EC50 [4]: ~500 nM |

| SMILES | Maximum activity (72 h, Table 2) [%] | EC50 [2] [nM] | Maximum activity (72 h, Table 1) [%] | EC50 [3] [nM] | further results |
| --- | --- | --- | --- | --- | --- |
| OCC1CCCN1c1nc(NCCc2ccc(F)cc2)c2ccccc2n1 (stereo not drawn) [Compound 5b] |  |  | 56.2 | 2130 ± 410 |  |
| OCC1CCCN1c1nc(NCCc2ccccc2Cl)c2ccccc2n1 (stereo not drawn) [Compound 5k] |  |  | 50.6 | 1440 ± 270 |  |
| OCC1CCCN1c1nc(NCCc2cccc(Cl)c2)c2ccccc2n1 (stereo not drawn) [Compound 5g] |  |  | 51.5 | 1050 ± 180 |  |
| OC[C@@H]1CCCN1c1nc(NCCc2ccccc2Br)c2ccccc2n1 [Compound 5l] |  |  | 39.0 | 1880 ± 320 |  |
| OCC1CCCCN1c1nc(NCCc2ccccc2Br)c2ccccc2n1 (stereo not drawn) [Compound 6m] | 44.2 | 1410 ± 310 |  |  |  |
| Nc1nc(Sc2cc(-n3cccc3)c(Cl)cc2[N+](=O)[O-])n[nH]1 [RH01687, reference compound] |  |  |  |  | concentration exhibiting the maximum protective activity (INS-1 cells, Tm 0.1 μg/mL, 72 h, based on dose-dependent curves): 30 µM |
| COc1ccc(CNc2nc(N3CCCCC3CO)nc3ccccc23)cc1OC (stereo not drawn) [Compound 9d] |  |  |  |  | Maximum activity (72 h, Table 3): 69.4%; EC50 [1]: 3640 ± 380 nM |
| OCC1CCCCN1c1nc(NCCc2ccccc2Cl)c2ccccc2n1 (racemic) [Compound 6l] | 51.4 | 470 ± 450 |  |  |  |
| OCC1CCCCN1c1nc(NCCc2cccc(Br)c2)c2ccccc2n1 (stereo not drawn) [Compound 6i] | 51.7 | 770 ± 400 |  |  |  |
| COc1ccc(CNc2nc(N3CCCC3CO)nc3ccccc23)cc1OC (stereo not drawn) [Compound 8d] |  |  |  |  | Maximum activity (72 h, Table 3): 44.9%; EC50 [1]: 1850 ± 390 nM |
| Cc1ccc(CCNc2nc(N3CCCC3CO)nc3ccccc23)cc1 (stereo not drawn) [Compound 5e] |  |  | 34.2 | 660 ± 210 | EC50 [4]: ~500 nM |
| OCC1CCCCN1c1nc(NCCc2cccc(F)c2)c2ccccc2n1 (stereo not drawn) [Compound 6g] | 57.3 | 1880 ± 180 |  |  |  |
| OCC1CCCCN1c1nc(NCCc2ccccc2)c2ccccc2n1 (stereo not drawn) [Compound 6a] | 55.7 | 360 ± 210 |  |  |  |
| Cc1ccc(CCNc2nc(N3CCCCC3CO)nc3ccccc23)cc1 (stereo not drawn) [Compound 6e] | 33.6 | 140 ± 40 |  |  |  |
| OCC1CCCN1c1nc(NCCc2cccc(Br)c2)c2ccccc2n1 (stereo not drawn) [Compound 5h] |  |  | 53.2 | 780 ± 240 |  |
| COc1cccc(CCNc2nc(N3CCCCC3CO)nc3ccccc23)c1 (stereo not drawn) [Compound 6j] | 69.2 | 2590 ± 310 |  |  | EC50 (INS-1 cell viability in presence of Tm): increased |
